Experimental data reported in patent US20160331723A1, “PHARMACOLOGICAL TREATMENT OF ATTENTION DEFICIT AND/OR HYPERACTIVITY” (BIOCODEX, priority 2013, published 2016).

Experiments:
[1] = tested on: Spontaneously Hypertensive Rat (SHR); test: Open field test, juvenile SHR rats; type: in vivo; conditions: 200 mg/kg i.p., second 10 minutes period, vs vehicle, p<0.001
Text: The inventors have examined the potential new therapeutic application of Stiripentol (STP, Diacomit®) in attention deficit and hyperactivity disorder (ADHD). For this, the effect of an acute administration of Stiripentol, on hyperactivity in rats was studied. The model chosen for this study is the Spontaneously Hypertensive Rat (SHR), a rat model that has been described as a model for hyperactivity (Sagvolden et al. (1992) Behav. Neural. Biol. 58:103-112; Sagvolden et al. (2009) Neuropharmacology 57:619-626; Davids et al. (2003) Brain Res. Brain Res. Rev. 42:1-21) and three behavioral tests were run: an open field test, an actimetry test and a grip test.
Juvenile (25-30 days old, 80-120 g) or adolescent (40-45 days old, 140-160 g) male Wistar SHR rats or the control strain Wistar kyoto (WKY) rats, from River Germany, were used in this study. […]
Rats are placed in the middle of an open field (a closed arena of 1 m×1 m), and recorded with a videotracking system (Videotrack, Viewpoint S.A., Lyon France). […] The number of rearings and zone changes is recorded during 2 consecutive 10 minutes periods. […]
(§1) Data are represented as the mean±standard error of mean (S.E.M.). The difference between Stiripentol and vehicle treated rats, was assessed with an ANOVA or repeated measures ANOVA (one factor repetition). […]

Wistar kyoto (WKY) rats [2] = test: Open field test, juvenile WKY control rats; type: in vivo, rat; conditions: 200 mg/kg i.p., second 10 minutes period, vs vehicle
Protocol: (§2) Juvenile (25-30 days old, 80-120 g) or adolescent (40-45 days old, 140-160 g) male Wistar SHR rats or the control strain Wistar kyoto (WKY) rats, from River Germany, were used in this study. They were housed 2 per cage (Techniplast ref. 1291), and maintained in a 12 h light/dark cycle (light ON at 7 AM). Food and water were provided ad libitum. Rats were acclimated to the animal facilities at least 5 days before testing started. The experiments were conducted in accordance with the European Recommendations (directive 86/609/EEC) for the use and care of laboratory animals.
Rats are placed in the middle of an open field (a closed arena of 1 m×1 m), and recorded with a videotracking system (Videotrack, Viewpoint S.A., Lyon France). The arena is separated in 9 equivalent zones on the analysis software. Illumination intensity is set around 30 lux. The number of rearings and zone changes is recorded during 2 consecutive 10 minutes periods. The test is started forty five minutes after vehicle or STP injection. For juvenile rats (around 25 days old, n=30 SHR rats, n=30 WKY rats), each rat was randomly assigned to a test group and tested once. […]
as §1

[3] = tested on: Spontaneously Hypertensive Rat (SHR); test: Actimetry (opto-varimex), juvenile SHR rats; type: in vivo; conditions: 200 mg/kg i.p., vs vehicle
Protocol: as §2
(§3) Animals are placed in the opto-varimex system (Plexiglas arena, 42×42 cm, Columbus Instruments, Columbus, Ohio), an automated system to quantify their activity as horizontal or vertical movements. Animals are habituated to the behavioral room for one hour before the beginning of the test, illumination intensity is around 400 lux. Activity is recorded immediately after placing the animal in the system, forty five minutes after injection, for a one hour period. Animals are assigned to a test group and tested only once. […]
as §1

Wistar kyoto (WKY) rats [4] = test: Actimetry (opto-varimex), juvenile WKY control rats; type: in vivo, rat; conditions: 200 mg/kg i.p., vs vehicle
Protocol: as §2, §3, §1

[5] = tested on: WKY (control) or SHR adolescent rats; test: Grip test (muscular strength); type: in vivo, rat; conditions: WKY and SHR rats (40-45 days old), 200 mg/kg i.p., 1 hour after administration, p=0.058, listed as STP
Protocol: The grip test measures the muscular strength of the animal. This test is used to identify myorelaxant properties of compounds. An electronic system is used (Bioseb) to measure the force developed by a rat grasping a T-shape bar with its forelimb. Five consecutive measures are taken, data are expressed as mean±standard error of mean. […] Measures are taken 60 minutes after intraperitoneal (i.p.) injection.
Stiripentol (batch 176, dissolved in 5% tween 80 in 0.9% NaCl) was administered i.p. at the dose of 200 mg/kg with an injection volume of 10 ml/kg.
Data are represented as the mean±standard error of mean (S.E.M.). The difference between Stiripentol and vehicle treated rats, was assessed with an ANOVA or repeated measures ANOVA (one factor repetition). Significance was set at p<0.05 (Sigma Stat, v3.5, SPSS, Chicago, USA).

[6] = several animal models; cited from earlier work
[7] = tested on: epilepsy seizures in children presenting with Dravet syndrome; conditions: add-on therapy to valproate and clobazam; cited from earlier work

strength developed in the grip test (myorelaxant effect) [5]: no significant effect
SMILES: CC(C)(C)C(O)/C=C/c1ccc2c(c1)OCO2 (racemic) [Stiripentol, 1-penten-3-ol,1-(1,3-benzodioxol)-4,4-dimethyl]
rearing activity in open field ([1]; SHR juvenile rats (25 days old)): significantly decreases
number of zone changes in open field ([1]; SHR juvenile rats): decreased
rearing activity in open field (Wistar kyoto (WKY) rats [2]): no effect
rearing behavior in actimetry [3]: statistically decreases
locomotor (ambulatory) activity in actimetry (Wistar kyoto (WKY) rats [4]; WKY control juvenile rats, one hour recording): no effect
number of rearings in actimetry (Wistar kyoto (WKY) rats [4]; WKY juvenile rats): no effect
anticonvulsant activity [6]: shown anticonvulsant activity
efficacy in controlling epilepsy seizures (responder rate) [7]: demonstrated
